In patent US20250228851A1, “ALLOSTERIC INHIBITOR COMPOUNDS FOR OVERCOMING CANCER RESISTANCE” (priority 2021, published 2025):
“Also recorded” adds a separate entry of the source.

Columns and labels:
[1] = tested on: HP (Ph− ALL PD-LTC); assay: XTT cell viability, PD-LTC HP; details: increasing concentration up to 10 μM
Method: (§6) Each tested compound was dissolved in a suitable vehicle and cells were exposed to successive solutions containing an increasing concentration of each test compound, as well as a control sample containing no test compound. A range of 5 (or 10) concentrations were tested in triplicates starting from 1 μM. The potency of each test compound was assessed by cell viability using an XTT assay [53, 54]. The ratio of cell viability (CV %) was determined by calculating the average of each triplicate, normalizing to the average in case to the average of the control sample.
(§7) Standard deviation (STD) was calculated for each triplicate and the curve logarithmic equation was calculated for each curve.
(§8) Each compound was assayed against a panel of Patient-Derived Long-Term cultures (PD-LTCs) including: • 8. […] PH: primary Patient-Derived Long-Term Cultures (PD-LTCs) from Ph^+ ALL patients Ph+ ALL (p185-BCR-ABL) that are fully responsive to TKIs ˜30% of adult ALL patients harbor the Ph chromosome, that represent a high-risk group of ALL. • 10. […] HP: PD-LTCs derived from Ph− ALL patient (not harboring the Ph chromosome). HP was used as negative control. • 12. VM: derived from a Ph+ ALL patient harboring p210-BCR-ABL. • 13.
(§9) The dose-response curves for single agent treatments were generated in Prism 9 (GraphPad). Curve fitting was performed by nonlinear regression using the log(inhibitor) vs. normalized response—Variable slope model.

[2] = tested on: Ba/F3 cells expressing p185-BCR-ABL; assay: XTT cell viability / proliferation, Ba/F3 expressing p185-BCR-ABL; type: cell-based, murine; details: p185-BCR-ABL-Ba/F3, increasing concentration up to 10 μM
Method: (§1) • 1. Ba/F3 cells were obtained from the German Collection of Microorganisms and Cell Cultures (DSMZ, Braunschweig, Germany) and maintained in RPMI 1640 medium supplemented with 10% fetal calf serum (Invitrogen) containing 10 ng/ml of interleukin-3 (Cell Concepts, Umkirch, Germany). Ecotropic Phoenix cells and Rat-1 cells were cultured in Dulbecco's modified Eagle's medium supplemented with 10% fetal calf serum. GNF-2 (Sigma-Adrich, Steinheim, Germany) was dissolved in dimethyl sulfoxide and added at a final concentration of […]. Cell growth was assessed by dye exclusion using Trypan blue. Proliferation was assessed using the XTT proliferation kit (Roche, Mannheim, Germany), according to the manufacturer's instructions. • 2. Ba/F3: IL-3 dependent lymphatic murine pro B cell line. Ba/F3 cells expressing either p185-BCR-ABL1 (p185-BCR-ABL-Ba/F3) or p210-BCR-ABL (p210-BCR-ABL-Ba/F3). p185-BCR-ABL1 (activated kinases substitute for the IL-3 signaling and therefore render the cells IL3 independent. Ba/F3 cells expressing either p185-BCR-ABL (p185-Ba/F3) or p210-BCR-ABL (p210-Ba/F3). Ba/F3 cells obtained from the German Collection of Microorganisms and Cell Cultures (DSMZ, Braunschweig, Germany). • 3. Mutant transduced Ba/F3 cells (T315I-p185-BCR-ABL1 or T315I-p210-BCR-ABL1): Ba/F3 cells expressing either the mutated forms T315I-p185-BCR-ABL1 or T315I-p210-BCR-ABL1. • 4. WT-Sup-B15: A Ph+ ALL cell line harboring the p185-BCR-ABL. Sup-B15: established from the bone marrow of a child with acute lymphoblastic leukemia (B cell precursor ALL) in second relapse in 1984; described in the literature to carry the ALL-variant (m-BCR) of the BCR-ABL1 fusion gene (e1-a2) correct, because it results in the p185-BCR-ABL version. • 5. […] V617FJAK2 HEL: (Human erythroleukemia) is a growth factor independent erythroleukemic cell line established from the bone marrow of a patient with relapsed Hodgkin disease after autologous bone marrow transplantation (Martin P & Papayannopoulou T: Science 1982; 216:1233-1235). HEL cells display a block in differentiation at the level of common erythroid-megakaryocytic progenitor and have been commonly used as a model to study erythroid and megakaryocytic differentiation. • 7. Jurkat: an immortalized human T lymphocyte first derived from the peripheral blood of a child suffering from T cell leukemia. Jurkat cells are used to study acute T cell leukemia, T cell signaling, and the expression of various chemokine receptors susceptible to viral entry, particularly HIV.
(§2) FIGS. 1A and 1B: Effects of Compound 16 on Ba/F3 cells expressing either p185-BCR-ABL or T315I-p185-BCR-ABL. Cells were exposed to increasing concentration of Compound 16 [empty vehicle (0.0 μM+IL3), 2.5, 5.0 and 10.0 μM]. […] Cell viability (CV) was assessed using the XTT method as described in the experimental part. The means±SD of triplicates from one representative experiment out of three performed are given.
(§3) FIGS. 7A-C: Effects of Compound 16 on of Ba/F3 cells expressing WT-p185-BCR-ABL (FIG. 7A) and the mutant gatekeeper T315I-p185-BCR-ABL (FIG. 7B) by Compound 16. Cells were exposed to increasing concentrations of Compound 16.

[3] = tested on: Ba/F3 cells expressing T315I-p185-BCR-ABL; assay: XTT cell viability / proliferation, Ba/F3 expressing T315I-p185-BCR-ABL; type: cell-based, murine; details: for antiproliferative response (in words): T315I-p185-BCR-ABL-Ba/F3, increasing concentration up to 10 μM
Method: as §1, §2, §3

[4] = tested on: PINCO transfected Ba/F3 cells; assay: XTT cell viability, Ba/F3 transduced with empty vector (PINCO); type: cell-based, murine; details: increasing concentration up to 10 μM
Method: (§4) • 1. Ba/F3 cells were obtained from the German Collection of Microorganisms and Cell Cultures (DSMZ, Braunschweig, Germany) and maintained in RPMI 1640 medium supplemented with 10% fetal calf serum (Invitrogen) containing 10 ng/ml of interleukin-3 (Cell Concepts, Umkirch, Germany). Ecotropic Phoenix cells and Rat-1 cells were cultured in Dulbecco's modified Eagle's medium supplemented with 10% fetal calf serum. GNF-2 (Sigma-Adrich, Steinheim, Germany) was dissolved in dimethyl sulfoxide and added at a final concentration of […]. Cell growth was assessed by dye exclusion using Trypan blue. Proliferation was assessed using the XTT proliferation kit (Roche, Mannheim, Germany), according to the manufacturer's instructions. • 2. Ba/F3: IL-3 dependent lymphatic murine pro B cell line. Ba/F3 cells expressing either p185-BCR-ABL1 (p185-BCR-ABL-Ba/F3) or p210-BCR-ABL (p210-BCR-ABL-Ba/F3). p185-BCR-ABL1 (activated kinases substitute for the IL-3 signaling and therefore render the cells IL3 independent. Ba/F3 cells expressing either p185-BCR-ABL (p185-Ba/F3) or p210-BCR-ABL (p210-Ba/F3). Ba/F3 cells obtained from the German Collection of Microorganisms and Cell Cultures (DSMZ, Braunschweig, Germany). • 3. Mutant transduced Ba/F3 cells (T315I-p185-BCR-ABL1 or T315I-p210-BCR-ABL1): Ba/F3 cells expressing either the mutated forms T315I-p185-BCR-ABL1 or T315I-p210-BCR-ABL1. • 4. WT-Sup-B15: A Ph+ ALL cell line harboring the p185-BCR-ABL. Sup-B15: established from the bone marrow of a child with acute lymphoblastic leukemia (B cell precursor ALL) in second relapse in 1984; described in the literature to carry the ALL-variant (m-BCR) of the BCR-ABL1 fusion gene (e1-a2) correct, because it results in the p185-BCR-ABL version. • 5. […]
FIG. 11: Antiproliferative effect of Compound 16 on PINCO transfected Ba/F3 cells. […] Proliferation status was determined by the metabolic activity of cells given by the reduction rate of XTT to formazan. […]

[5] = tested on: Jurkat; assay: XTT cell viability, Jurkat; type: cell-based, human; details: increasing concentration up to 10 μM
Method: as §4
FIG. 2: Effect of Compound 16 on leukemia cell lines (Jurkat, Sup-B15 and BV173). Cell viablility (CV) was determined following incubation of the 1 m cells/ml of each cell line with increasing concentration of the Compound 16 [empty vehicle (0.0 μM+IL3), 2.5, 5.0 and 10.0 μM]. CV was measured by the XTT method. […]

[6] = tested on: Sup-B15 (p185-BCR-ABL); assay: XTT cell viability, Sup-B15 (WT-Sup-B15); type: cell-based, human
Method: as §1
FIG. 2: Effect of Compound 16 on leukemia cell lines (Jurkat, Sup-B15 and BV173). Cell viablility (CV) was determined following incubation of the 1 m cells/ml of each cell line with increasing concentration of the Compound 16 [empty vehicle (0.0 μM+IL3), 2.5, 5.0 and 10.0 μM]. CV was measured by the XTT method. The means±SD of triplicates from one representative experiment out of three performed are given.

[7] = tested on: RT-Sup-B15; assay: XTT cell viability, RT-Sup-B15; type: cell-based, human; details: RT-Sup-B15, increasing concentration up to 10 μM
Method: (§5) • 1. Ba/F3 cells were obtained from the German Collection of Microorganisms and Cell Cultures (DSMZ, Braunschweig, Germany) and maintained in RPMI 1640 medium supplemented with 10% fetal calf serum (Invitrogen) containing 10 ng/ml of interleukin-3 (Cell Concepts, Umkirch, Germany). Ecotropic Phoenix cells and Rat-1 cells were cultured in Dulbecco's modified Eagle's medium supplemented with 10% fetal calf serum. GNF-2 (Sigma-Adrich, Steinheim, Germany) was dissolved in dimethyl sulfoxide and added at a final concentration of […]. Cell growth was assessed by dye exclusion using Trypan blue. Proliferation was assessed using the XTT proliferation kit (Roche, Mannheim, Germany), according to the manufacturer's instructions. • 2. Ba/F3: IL-3 dependent lymphatic murine pro B cell line. […]

[8] = tested on: BV (Ph+ ALL PD-LTC); assay: XTT cell viability, PD-LTC BV; type: cell-based, human; details: for antiproliferative response (in words): increasing concentration 0.5-10 μM; for induction of cell proliferation at high concentration (in words): concentration >5 μM (10 μM)
[9] = tested on: KÖ (Ph+T315I-p185-BCR-ABL ALL); assay: XTT cell viability, PD-LTC KÖ; type: cell-based, human
[10] = tested on: Ph− V617FJAK2 HEL; assay: XTT cell viability, HEL; type: cell-based, human; details: increasing concentration up to 10 μM
Method: as §5

[11] = tested on: PH (Ph+ ALL PD-LTC); assay: XTT cell viability, PD-LTC PH; details: for antiproliferative response (in words): increasing concentration 0.5-10 μM
Method: as §6, §7, §8, §9

[12] = tested on: SATA5, pSTAT5, JAK2 and pJAK2; assay: Western blotting of HEL cells; type: cell-based, human; details: 500 nM
Method: FIG. 40: Western blot analysis of HEL cells using antibodies directed against the indicated proteins. Cells were exposed to increasing concentration of Compound 34 [vehicle (0.0 nM), 50, 100.0, 500.0, 1000.0, and 5000.0 nM].
Cells were harvested at the corresponding time intervals (0, 3, 6, 12, and 14 hours) on HELL cells. Anti-STAT5, anti-pSTAT5, anti-JAK2 and anti-pJAK2 antibodies were used.

SMILES | antiproliferative response (in words) [1] | antiproliferative response (in words) [2] | antiproliferative response (in words) [3] | antiproliferative response (in words) [8] | antiproliferative response (in words) [11] | further results
O=C(Nc1ccc(OC(F)(F)Cl)cc1)c1cnc(N2CC[C@@H](O)C2)c(-c2cc[nH]n2)c1 [ABL001, Asciminib, reference compound] | irresponsiveness |  |  |  |  | 
CS(=O)(=O)N1CCN(c2cc(Nc3ccc(OC(F)(F)F)cc3)ncn2)CC1 [Compound 30] |  | increased sensitivity | concentration dependent inhibition; also recorded: weakly responsive | increased sensitivity | increased sensitivity; also recorded: PH>BV | cell viability (CV) at plateau ([3]; 4 and 10.0 μM): ~16%; antiproliferative response (in words) [4]: weakly responsive; antiproliferative response (in words) [5]: irresponsive; antiproliferative response (in words) ([6]; Sup-B15 / WT-Sup-B15, increasing concentration up to 10 μM): responsive; also recorded: twice as sensitive; also recorded: increased sensitivity; antiproliferative response (in words) [7]: irresponsive; also recorded: weakly responsive; antiproliferative response (in words) ([9]; increasing concentration up to 10 μM): weak inhibition is noticed at concentration that ranges between 2.5-10 μM; also recorded: negligible at low concentrations (<1 μM); antiproliferative response (in words) [10]: weakly responsive; also recorded: negligible at low concentrations (<1 μM); also recorded: weak inhibition is noticed at concentration that ranges between 2.5-10 μM
Cc1ccc(S(=O)(=O)N2CCN(c3cc(Nc4ccc(OC(F)(F)F)cc4)ncn3)CC2)cc1 [Compound 31] | negligible | negligible | negligible | significantly inhibited; also recorded: increased sensitivity; also recorded: enhanced activity | significantly inhibited; also recorded: increased sensitivity; also recorded: enhanced activity | induction of cell proliferation at high concentration (in words) [8]: induction of cell proliferation; also recorded: growth induction; induction of cell proliferation at high concentration (in words) ([8]; listed as −31): growth induction; antiproliferative response (in words) [10]: negligible; induction of cell proliferation at high concentration (in words) ([11]; concentration >5 μM (10 μM)): induction of cell proliferation; also recorded: growth induction
COc1ccc(C(=O)N2CCN(c3cc(Nc4ccc(OC(F)(F)F)cc4)ncn3)CC2)c(OC)c1 [Compound 32] |  |  |  | enhanced activity; also recorded: milder | enhanced activity; also recorded: good inhibitory effect | 
O=C(c1cccc(-c2cc(Nc3ccc(OC(F)(F)F)cc3)ncn2)c1)N1CCN(c2ccc(C(F)(F)F)cn2)CC1 [Compound 34] | highly resistant; also recorded: negligible; also recorded: some response at higher doses | most sensitive | least responsive; also recorded: irresponsive | more effective in inhibiting the proliferation BV than KÖ | most responsive; also recorded: twice as sensitive | antiproliferative response (in words) [4]: intermediately responsive; also recorded: next in response; antiproliferative response (in words) [5]: irresponsive; also recorded: negligible; IC50 ([6]; WT-Sup-B15, Table 1): 28.6 µM; antiproliferative response (in words) [7]: irresponsive; also recorded: negligible; IC50 ([8]; Table 1): 0.45 µM; IC50 ([9]; Table 1): 2.37 µM; level of expression of SATA5, pSTAT5, JAK2 and pJAK2 (in words) [12]: reduction in the level of expression; IC50 ([11]; Table 1): 0.13 µM
Cc1ccc(NC(=O)c2ccc(CN3CCN(C)CC3)cc2)cc1Nc1nccc(-c2cccnc2)n1 [Imatinib, reference compound] | irresponsiveness |  |  |  |  | 
Cc1cn(-c2cc(NC(=O)c3ccc(C)c(Nc4nccc(-c5cccnc5)n4)c3)cc(C(F)(F)F)c2)cn1 [Nilotinib, reference compound] | irresponsiveness |  |  |  |  | 
